According to ChEMBL document CHEMBL3414456, “Pentacyclic triterpene derivatives possessing polyhydroxyl ring A inhibit gram-positive bacteria growth by regulating metabolism and virulence genes expression” (2015):
≈ marks a conversion by molar mass, not a printed value. Calls of active or inactive are those of the source. No cut-off for these calls is given here.

What was measured:
[1] = system: Staphylococcus aureus; test: Antibacterial activity against Staphylococcus aureus ATCC 25923 assessed as growth inhibition at 100 uM after 24 hrs by turbidimetric analysis; type: functional; details: for inhibition of growth at 100 µM: ATCC 25923, 24 h, read-out: GI
[2] = system: Bacillus spizizenii; test: Antibacterial activity against Bacillus subtilis ATCC 6633 assessed as growth inhibition at 100 uM after 24 hrs by turbidimetric analysis; type: functional; details: for inhibition of growth at 100 µM: ATCC 6633, 24 h, read-out: GI
[3] = system: Streptomyces scabiei; test: Antibacterial activity against Streptomyces scabiei CGMCC4.7610246 assessed as growth inhibition at 100 uM after 36 hrs by turbidimetric analysis; type: functional, organism-based
[4] = system: Staphylococcus aureus; test: Antibacterial activity against Staphylococcus aureus ATCC 25923 assessed as growth inhibition after 24 hrs by turbidimetric analysis; type: functional; details: ATCC 25923, 24 h
[5] = system: Streptomyces scabiei; test: Antibacterial activity against Streptomyces scabiei CGMCC4.7610246 assessed as growth inhibition after 36 hrs by turbidimetric analysis; type: functional; details: CGMCC4.7610246, 36 h
[6] = system: Bacillus spizizenii; test: Antibacterial activity against Bacillus subtilis ATCC 6633 assessed as growth inhibition after 24 hrs by turbidimetric analysis; type: functional; details: ATCC 6633, 24 h

MIC [4] [µM]	MIC [5] [µM]	MIC [6] [µM]	Structure (SMILES)	growth inhibition (GI) [1]	growth inhibition (GI) [2]	growth inhibition (GI) [3]	inhibition of growth at 100 µM [1] [%]	inhibition of growth at 100 µM [2] [%]
–	–	–	CC1(C)CC[C@]2(C(=O)O)CC[C@]3(C)C(=CC[C@@H]4[C@@]5(C)C=CC(=O)C(C)(C)[C@@H]5CC[C@]43C)[C@@H]2C1	Active	Active	Active	–	–
–	–	–	C[C@H]1[C@H](C)CC[C@]2(C(=O)OCc3ccccc3)CC[C@]3(C)C(=CC[C@@H]4[C@@]5(C)[C@@H](O)[C@H](O)[C@H](O)C(C)(C)[C@@H]5CC[C@]43C)[C@H]12	Active	–	–	–	–
8 (≈ 4.25 µg/mL)	≥ 100	32 (≈ 17 µg/mL)	CCCOC(=O)[C@]12CC[C@@H](C)[C@H](C)[C@H]1C1=CC[C@@H]3[C@@]4(C)[C@@H](O)[C@H](O)[C@H](O)C(C)(C)[C@@H]4CC[C@@]3(C)[C@]1(C)CC2	–	–	–	> 95	> 95
–	–	–	CCCCCCCCCCCCCCCOC(=O)[C@]12CC[C@@H](C)[C@H](C)[C@H]1C1=CC[C@@H]3[C@@]4(C)[C@@H](O)[C@H](O)[C@H](O)C(C)(C)[C@@H]4CC[C@@]3(C)[C@]1(C)CC2	Active	Active	–	–	–
–	–	–	C[C@H]1[C@H](C)CC[C@]2(C(=O)OCc3ccccc3)CC[C@]3(C)C(=CC[C@@H]4[C@@]5(C)[C@H]6O[C@H]6C(=O)C(C)(C)[C@@H]5CC[C@]43C)[C@H]12	–	Active	Active	–	–
–	–	–	CC1(C)CC[C@]2(C(=O)OCc3ccccc3[N+](=O)[O-])CC[C@]3(C)C(=CC[C@@H]4[C@@]5(C)[C@@H](O)[C@H](O)[C@H](O)C(C)(C)[C@@H]5CC[C@]43C)[C@@H]2C1	Active	Active	inactive	–	–
–	–	–	C[C@H]1[C@H](C)CC[C@]2(C(=O)OCc3ccc([N+](=O)[O-])cc3)CC[C@]3(C)C(=CC[C@@H]4[C@@]5(C)[C@@H](O)[C@H](O)[C@H](O)C(C)(C)[C@@H]5CC[C@]43C)[C@H]12	Active	Active	inactive	–	–
–	–	–	CC1(C)CC[C@]2(C(=O)OCc3ccc([N+](=O)[O-])cc3)CC[C@]3(C)C(=CC[C@@H]4[C@@]5(C)[C@@H](O)[C@H](O)[C@H](O)C(C)(C)[C@@H]5CC[C@]43C)[C@@H]2C1	Active	Active	inactive	–	–
–	–	–	CCCCCOC(=O)[C@]12CC[C@@H](C)[C@H](C)[C@H]1C1=CC[C@@H]3[C@@]4(C)[C@@H](O)[C@H](O)[C@H](O)C(C)(C)[C@@H]4CC[C@@]3(C)[C@]1(C)CC2	Active	Active	–	–	–
–	–	–	C[C@H]1[C@H](C)CC[C@]2(C(=O)OCc3ccccc3Cl)CC[C@]3(C)C(=CC[C@@H]4[C@@]5(C)[C@@H](O)[C@H](O)[C@H](O)C(C)(C)[C@@H]5CC[C@]43C)[C@H]12	Active	Active	inactive	–	–
8 (≈ 4.36 µg/mL)	≥ 100	≥ 100	CCCCOC(=O)[C@]12CCC(C)(C)C[C@H]1C1=CC[C@@H]3[C@@]4(C)[C@@H](O)[C@H](O)[C@H](O)C(C)(C)[C@@H]4CC[C@@]3(C)[C@]1(C)CC2	–	–	–	> 95	> 95
≥ 100	4 (≈ 2.33 µg/mL)	2 (≈ 1.16 µg/mL)	CN[C@@H]1[C@H](O[C@H]2[C@H](O[C@H]3[C@H](O)[C@@H](O)[C@H](N=C(N)N)[C@@H](O)[C@@H]3N=C(N)N)O[C@@H](C)[C@]2(O)C=O)O[C@@H](CO)[C@H](O)[C@H]1O [STREPTOMYCIN]	–	–	–	–	–
–	–	–	CC1(C)CC[C@]2(C(=O)O)CC[C@]3(C)C(=CC[C@@H]4[C@@]5(C)[C@H]6O[C@H]6C(=O)C(C)(C)[C@@H]5CC[C@]43C)[C@@H]2C1	–	Active	Active	–	–
8 (≈ 4.02 µg/mL)	64 (≈ 32.2 µg/mL)	32 (≈ 16.1 µg/mL)	COC(=O)[C@]12CC[C@@H](C)[C@H](C)[C@H]1C1=CC[C@@H]3[C@@]4(C)[C@@H](O)[C@H](O)[C@H](O)C(C)(C)[C@@H]4CC[C@@]3(C)[C@]1(C)CC2	–	–	–	> 95	> 95
–	–	–	CC1(C)CC[C@]2(C(=O)O)CC[C@]3(C)C(=CC[C@@H]4[C@@]5(C)[C@@H](O)[C@H](O)[C@H](O)C(C)(C)[C@@H]5CC[C@]43C)[C@@H]2C1	Active	–	–	–	–
–	–	–	C[C@H]1[C@H](C)CC[C@]2(C(=O)OCc3ccccc3)CC[C@]3(C)C(=CC[C@@H]4[C@@]5(C)C=CC(=O)C(C)(C)[C@@H]5CC[C@]43C)[C@H]12	Active	Active	Active	–	–
8 (≈ 4.36 µg/mL)	≥ 100	64 (≈ 34.9 µg/mL)	CCCCOC(=O)[C@]12CC[C@@H](C)[C@H](C)[C@H]1C1=CC[C@@H]3[C@@]4(C)[C@@H](O)[C@H](O)[C@H](O)C(C)(C)[C@@H]4CC[C@@]3(C)[C@]1(C)CC2	–	–	–	> 95	> 95
–	–	–	CCCCCCCCCCCCCCCOC(=O)[C@]12CCC(C)(C)C[C@H]1C1=CC[C@@H]3[C@@]4(C)[C@@H](O)[C@H](O)[C@H](O)C(C)(C)[C@@H]4CC[C@@]3(C)[C@]1(C)CC2	Active	Active	–	–	–
–	–	–	C[C@H]1[C@H](C)CC[C@]2(C(=O)OCc3ccc(Cl)cc3)CC[C@]3(C)C(=CC[C@@H]4[C@@]5(C)[C@@H](O)[C@H](O)[C@H](O)C(C)(C)[C@@H]5CC[C@]43C)[C@H]12	Active	Active	inactive	–	–
4 (≈ 1.4 µg/mL)	≥ 100	≥ 100	CC1(C)S[C@@H]2[C@H](NC(=O)[C@H](N)c3ccccc3)C(=O)N2[C@H]1C(=O)O [AMPICILLIN]	–	–	–	–	–
–	–	–	CCCCCOC(=O)[C@]12CCC(C)(C)C[C@H]1C1=CC[C@@H]3[C@@]4(C)[C@@H](O)[C@H](O)[C@H](O)C(C)(C)[C@@H]4CC[C@@]3(C)[C@]1(C)CC2	Active	Active	–	–	–
–	–	–	CC1(C)CC[C@]2(C(=O)OCc3ccccc3Cl)CC[C@]3(C)C(=CC[C@@H]4[C@@]5(C)[C@@H](O)[C@H](O)[C@H](O)C(C)(C)[C@@H]5CC[C@]43C)[C@@H]2C1	Active	Active	inactive	–	–
–	–	–	C[C@H]1[C@H](C)CC[C@]2(C(=O)O)CC[C@]3(C)C(=CC[C@@H]4[C@@]5(C)[C@@H](O)[C@H](O)[C@H](O)C(C)(C)[C@@H]5CC[C@]43C)[C@H]12	Active	Active	Active	–	–
–	–	–	C[C@H]1[C@H](C)CC[C@]2(C(=O)OCc3ccccc3[N+](=O)[O-])CC[C@]3(C)C(=CC[C@@H]4[C@@]5(C)[C@@H](O)[C@H](O)[C@H](O)C(C)(C)[C@@H]5CC[C@]43C)[C@H]12	Active	Active	inactive	–	–
8 (≈ 4.25 µg/mL)	≥ 100	64 (≈ 34 µg/mL)	CC(C)OC(=O)[C@]12CCC(C)(C)C[C@H]1C1=CC[C@@H]3[C@@]4(C)[C@@H](O)[C@H](O)[C@H](O)C(C)(C)[C@@H]4CC[C@@]3(C)[C@]1(C)CC2	–	–	–	> 95	> 95
